Source: paper PMC4844587, “PET imaging of cyclooxygenase-2 (COX-2) in a pre-clinical colorectal cancer model” (EJNMMI Research, 2016)

Key:
HCA-7 tumors [1] = experiment: Dynamic PET imaging of HCA-7 tumor-bearing mice
Method: Female NIH-III nude mice were housed under standard conditions with free access to standard food and tap water. HCA-7 and HCT-116 cells (5 × 10^6 cells in 100 μL of PBS) were injected into the upper left flank of female NIH-III nude mice (20–24 g). After 14 to 21 days post-inoculation, HCA-7 and HCT-116 tumors reached sizes of approximately 0.6–0.9 cm^3 (0.78 ± 0.15 g, as determined during biodistribution experiments) which were suitable for all in vivo experiments.
General anesthesia of HCA-7 tumor-bearing mice was induced with inhalation of isoflurane in 40 % oxygen/60 % nitrogen (gas flow = 1 mL/min), and mice were subsequently fixed in prone position. The body temperature was kept constant at 37 °C for the entire experiment. […] PET data was collected dynamically over 60 min for up to 4 h using an Inveon® PET/CT scanner (Siemens Preclinical Solutions, Knoxville, TN, USA). For the initial 4-h dynamic PET experiments, 3.5 % HSA was added to the final injection solution, while all other experiments were done without addition of carrier protein HSA. Mean standardized uptake values [SUVmean = (activity/mL tissue)/(injected activity/body weight), mL/g] were calculated for each region of interest (ROI) with a threshold defined at 50 % of radioactivity uptake. The time-activity curves (TACs) were generated from dynamic PET scans. All semi-quantified PET data are presented as means ± SEM.
A transmission scan for attenuation correction was not acquired. The radioactivity of the injection solution in a 0.5 mL syringe was determined with a dose calibrator (Atomlab^TM 300, Biodex Medical Systems, New York, U.S.A.). After the PET emission scan was started the radioactivity was injected with a delay of approximately 15 s. Data acquisition continued for 60 min in 3D list mode. The dynamic list mode data were sorted into sinograms with up to 54 time frames (10x2, 8x5, 6x10, 6x20, 8x60, 10x120, 6x300 s). The frames were reconstructed using maximum a posteriori (MAP) reconstruction modes. The pixel size was 0.085x0.085x0.12 cm, and the resolution in the center field of view was 1.8 mm. Correction for partial volume effects was not performed. The image files were further processed using the ROVER v2.0.51 software (ABX GmbH, Radeberg, Germany). Masks defining 3D regions of interest (ROI) were set and the ROIs were defined by thresholding.
ROIs covered all visible tumor mass of the subcutaneous tumors, and the thresholds were defined by 50% of the maximum radioactivity uptake level for HCA-7 tumor in each animal.

HCA-7 tumors [2] = experiment: Biodistribution in HCA-7 tumor-bearing mice; conditions: 60 min p.i.; for Biodistribution: Tumor/blood / Biodistribution: Tumor/muscle: ratio, n = 4; for Blocking of [^18F]Pyricoxib tumor uptake (biodistribution studies): celecoxib 100 mg/kg (2 mg per mouse) i.p., HCA-7 tumor
Method: Animals were sacrificed at 60 min p.i. The organs and tissues of interest were rapidly excised, weighed, and the radioactivity was determined using the automatic gamma counter (see above). Radioactivity in the selected tissues and organs was calculated as percent injected dose per gram tissue (%ID/g). Data were analyzed as means ± standard deviation (mean ± SD) for n = 4 animals.

Lipophilicity = type: physicochemical
[3] = Radiometabolite analysis and blood compartment distribution; type: in vivo, NIH-III nude mice
Method: Blood samples from the tail vein (20–40 μL) were collected at 5, 30, 60, and 120 min p.i. Plasma was separated by centrifugation (5 min, 13,000×g) followed by plasma protein precipitation using ice-cold methanol (two parts per one part plasma) and centrifugation (5 min, 13,000×g). Supernatants were analyzed by radio thin-layer chromatography (radio-TLC). TLCs were developed in 1 % MeOH/CH2Cl2 and analyzed using a BAS-5000 reader.

HCT-116 tumors = experiment: PET imaging of HCT-116 tumor-bearing mice; type: in vivo, NIH-III nude mice; conditions: 2 h p.i., n = 3
Method: Positron emission tomography (PET) and biodistribution experiments were carried out in HCA-7 and HCT-116 tumor-bearing NIH-III nude mice (Charles River Laboratories, Quebec, Canada). Female NIH-III nude mice were housed under standard conditions with free access to standard food and tap water. HCA-7 and HCT-116 cells (5 × 10^6 cells in 100 μL of PBS) were injected into the upper left flank of female NIH-III nude mice (20–24 g). After 14 to 21 days post-inoculation, HCA-7 and HCT-116 tumors reached sizes of approximately 0.6–0.9 cm^3 (0.78 ± 0.15 g, as determined during biodistribution experiments) which were suitable for all in vivo experiments.
General anesthesia of HCA-7 tumor-bearing mice was induced with inhalation of isoflurane in 40 % oxygen/60 % nitrogen (gas flow = 1 mL/min), and mice were subsequently fixed in prone position. The body temperature was kept constant at 37 °C for the entire experiment. […] PET data was collected dynamically over 60 min for up to 4 h using an Inveon® PET/CT scanner (Siemens Preclinical Solutions, Knoxville, TN, USA). […] Mean standardized uptake values [SUVmean = (activity/mL tissue)/(injected activity/body weight), mL/g] were calculated for each region of interest (ROI) with a threshold defined at 50 % of radioactivity uptake. […] All semi-quantified PET data are presented as means ± SEM.

COX-2 = conditions: read-out: COX-2 inhibition IC50; cited from earlier work
[4] = test system: carbonic anhydrase (CA) enzyme family; conditions: cited from earlier work
[5] = + 2 mg celecoxib i.p. 60 min prior

Method for HCA-7 cells: Blocking experiments were performed at 60 min. Radiotracer uptake was stopped by the addition of 1 mL of ice-cold PBS. Then, cells were washed two times with PBS and lysed in 0.4 mL of radioimmunoprecipitation assay buffer (RIPA buffer). Radioactivity of cell lysates was determined with a WIZARD2 Automatic gamma counter (Perkin Elmer; Waltham, MA, USA). Total protein concentration in the samples was determined by the bicinchoninic acid method (BCA; Pierce, Thermo Scientific 23227) using bovine serum albumin (800, 600, 400, 300, 200, 100, 50 μg/mL, blank) as protein standard. Cell uptake data are expressed as percent of measured radioactivity per 1 mg protein (%radioactivity/mg protein).

CS(=O)(=O)c1ccc(-c2cc(C(F)(F)F)nc(NCc3ccc([18F])cc3)n2)cc1 [[^18F]Pyricoxib, N-(4-[^18F]fluorobenzyl)-4-[4-(methylsulfonyl)phenyl]-6-(trifluoro-methyl)pyrimidin-2-amine]
Mean SUV HCA-7 tumor (HCA-7 tumors [1]; 60 min p.i., control animals, no HSA, n = 6): 0.75 ± 0.12
SUV HCA-7 tumor (HCA-7 tumors [1]; 60 min p.i., pre-treated with celecoxib 2 mg i.p. 60 min prior, n = 6): 0.57 ± 0.20
SUV2h tumor (HCA-7 tumors [1]; HCA-7 tumor, 2 h p.i., n = 3): 1.09 ± 0.13
SUV4h tumor (HCA-7 tumors [1]; HCA-7 tumor, 4 h p.i., […] HSA added, n = 7): 1.19 ± 0.13
SUV muscle (HCA-7 tumors [1]; muscle as reference tissue, 60 min p.i., no HSA, n = 6): 0.50 ± 0.11
SUV60min muscle (HCA-7 tumors [1]; muscle, 60 min p.i., […] HSA added): 0.61 ± 0.14
SUV4h muscle (HCA-7 tumors [1]; muscle, 4 h p.i., […] HSA added, n = 7): 0.53 ± 0.11
Biodistribution: Blood (HCA-7 tumors [2]; control, n = 4, mean ± SD): 0.65 ± 0.12 %ID/g
Biodistribution: Bone (HCA-7 tumors [2]; control, n = 4, mean ± SD): 0.67 ± 0.19 %ID/g
Biodistribution: Brain (HCA-7 tumors [2]; control, n = 4, mean ± SD): 1.74 ± 0.51 %ID/g
Biodistribution: Duodenum (HCA-7 tumors [2]; control, n = 4, mean ± SD): 4.59 ± 0.73 %ID/g
Biodistribution: Fat (HCA-7 tumors [2]; control, n = 4, mean ± SD): 12.67 ± 5.45 %ID/g
Biodistribution: HCA-7 tumor (HCA-7 tumors [2]; control, n = 4, mean ± SD): 2.12 ± 0.53 %ID/g
Biodistribution: Heart (HCA-7 tumors [2]; control, n = 4, mean ± SD): 2.52 ± 0.54 %ID/g
Biodistribution: Intestine (large) (HCA-7 tumors [2]; control, n = 4, mean ± SD): 4.21 ± 1.74 %ID/g
Biodistribution: Intestine (small) (HCA-7 tumors [2]; control, n = 4, mean ± SD): 8.08 ± 2.33 %ID/g
Biodistribution: Kidneys (HCA-7 tumors [2]; control, n = 4, mean ± SD): 4.38 ± 1.01 %ID/g
Biodistribution: Liver (HCA-7 tumors [2]; control, n = 4, mean ± SD): 17.13 ± 1.22 %ID/g
Biodistribution: Lung (HCA-7 tumors [2]; control, n = 4, mean ± SD): 3.75 ± 0.66 %ID/g
Biodistribution: Muscle (HCA-7 tumors [2]; control, n = 4, mean ± SD): 1.42 ± 0.54 %ID/g
Biodistribution: Ovaries (HCA-7 tumors [2]; control, n = 4, mean ± SD): 8.22 ± 1.27 %ID/g
Biodistribution: Pancreas (HCA-7 tumors [2]; control, n = 4, mean ± SD): 3.92 ± 1.39 %ID/g
Biodistribution: Spleen (HCA-7 tumors [2]; control, n = 4, mean ± SD): 1.24 ± 0.33 %ID/g
Biodistribution: Stomach (HCA-7 tumors [2]; control, n = 4, mean ± SD): 1.08 ± 0.29 %ID/g
Biodistribution: Tumor/blood (HCA-7 tumors [2]; [5]): 1.09 ± 0.41
Biodistribution: Tumor/muscle (HCA-7 tumors [2]; [5]): 0.70 ± 0.19
Biodistribution: Tumor/blood (HCA-7 tumors [2]; control): 3.39 ± 0.55
Biodistribution: Tumor/muscle (HCA-7 tumors [2]; control): 1.81 ± 1.04
logP (Lipophilicity): 3.37
Blood compartment distribution: blood cells ([3]; 5 min): 68%
Blood compartment distribution: plasma proteins ([3]; 5 min): 2%
Blood compartment distribution: plasma supernatant ([3]; 5 min): 30%
Detectable radioactivity in plasma fraction ([3]; 5 min p.i.): 30%
Blood compartment distribution: blood cells ([3]; 30 min): 54%
Blood compartment distribution: plasma proteins ([3]; 30 min): 4%
Blood compartment distribution: plasma supernatant ([3]; 30 min): 42%
Blood compartment distribution: blood cells ([3]; 60 min): 43%
Blood compartment distribution: plasma proteins ([3]; 60 min): 7%
Blood compartment distribution: plasma supernatant ([3]; 60 min): 50%
Detectable radioactivity in plasma fraction ([3]; 2 h p.i.): 50%
Percentage of intact [^18F]Pyricoxib ([3]; blood, 5 min p.i., mice): 98%
SUV2h tumor (HCT-116 tumors): 0.93 ± 0.06

CS(=O)(=O)c1ccc(C2=C(c3ccccc3)C(=O)OC2)cc1 [rofecoxib, 4-(4′-methylsulfonylphenyl)-3-phenyl-2-(5H)-furanone]
IC50 (COX-2): 0.018 to 0.026 µM
Blocking of [^18F]Pyricoxib uptake (HCA-7 cells): blocked uptake of [^18F]Pyricoxib in HCA-7 cells in a concentration-dependent manner

Cc1ccc(-c2cc(C(F)(F)F)nn2-c2ccc(S(N)(=O)=O)cc2)cc1 [celecoxib, reference compound]
Affinity for carbonic anhydrase [4]: low nanomolar affinity
Blocking of [^18F]Pyricoxib tumor uptake (biodistribution studies) (HCA-7 tumors [2]): 50%
Blocking of [^18F]Pyricoxib tumor uptake (biodistribution studies) (HCA-7 tumors [2]; listed as Celecoxib): 51%
